The values that follow come from US20080182880A1, “PIOGLITAZONE COMPOSITION” (priority 2006, published 2008).

Each structure is given as a SMILES string. Read-outs that look alike come from different tables or passages of the source.

This data set can be described thus: Comparative bioavailability of Trial 2 of Example 4 and ACTOS tablets 45 mg, open label randomized cross-over single dose study, fasting, 55 subjects. Format: in vivo. To be noted: human, plasma, oral, calculated from Table 6 results, single dose to humans. The procedure:
In determining bioequivalence, for example, between two products such as a commercially available product and a proposed product, pharmacokinetic studies are conducted whereby each of the preparations is administered in a crossover study to volunteer subjects. Serum plasma samples are obtained at regular intervals and assayed for parent drug (or occasionally metabolite) concentrations. For a pharmacokinetic comparison, the plasma concentration data are used to assess key pharmacokinetic parameters such as area under the plasma concentration-time curve (AUC), peak concentration (Cmax) and time to peak plasma concentration (Tmax).
R represents reference product, i.e., ACTOS tablets 45 mg.
Study design: Open label randomized cross-over single dose study under fasting conditions.

As a reminder, the Cmax is the peak of the concentration-time curve. For `CCc1ccc(CCOc2ccc(CC3SC(=O)NC3=O)cc2)nc1` (racemic) [Pioglitazone, (±)-5-[[4-[2-(5-ethyl-2-pyridinyl)ethoxy]phenyl]methyl]-2,4-]thiazolidinedione], the AUC(0-inf) reads like this: (read-out: therapeutically equivalent range of plasma pioglitazone AUC0-∞) 12300 to 19100 ng·h/mL; (read-out: therapeutically equivalent range of plasma pioglitazone AUC0-∞T) 11900 to 18500 ng·h/mL. Besides, the Cmax (read-out: therapeutically equivalent range of plasma pioglitazone Cmax) is 1030 to 1610 ng/mL.
